{
  "source": "patent US20130045952A1",
  "about": "“ABA Receptor Agonists for Increased Plant Stress Resistance” (Van Andel Research Institute, priority 2011, published 2013)",
  "key": {"PYL2 A93F": {"biological_target": "T1, PYL2 A93F (Arabidopsis thaliana, UniProt O80992, A93F)", "T1 construct": "PYL2 (residues 14-188), and HAB1 (residues 172-511) were prepared as recombinant proteins in E. coli; made in house; host or cells: E. coli (stated for PYL2 in general)", "T1 sequence (O80992 14-188 A93F)": "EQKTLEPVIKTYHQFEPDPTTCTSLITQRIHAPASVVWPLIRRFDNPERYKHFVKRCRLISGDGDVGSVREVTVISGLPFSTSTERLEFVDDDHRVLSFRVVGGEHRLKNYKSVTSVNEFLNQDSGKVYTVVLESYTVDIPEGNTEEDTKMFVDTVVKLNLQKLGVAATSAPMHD", "test": "PP2C binding and phosphatase assays of mutant PYL2 A93F", "format": "biochemical", "description": "The closest distance between the pyridine ring of pyrabactin and the LPA gating residues is 4.8 Å-7.0 Å when the LPA loop assumes the ABA-bound closed conformation, but is 11-13 Å when the LPA gate is in open conformation. In contrast, the distance of the naphthalene double ring of pyrabactin or the cyclohexene ring of ABA to the three side chains of the LPA gate in the PYL1 structure is 3.4-4.6 Å, a range for strong Van der Waals interactions, thus helping to keep the LPA gate in the closed conformation. […] To validate this hypothesis, we changed the alanine in the LPA loop to a larger residue. […] As expected from structural modeling, replacement of the gate residue A93 with the bulky phenylalanine ring also abrogated ABA to promote PYL2 activation.\n(§1) Mutant proteins were expressed as H6GST-fusion proteins and purified by glutathione sepharose chromatography. Protein-protein interactions were determined by luminescence proximity AlphaScreen assay. Biotinylated PP2C proteins for the luminescence proximity assay were generated by in vivo biotinylation of avitag-PP2C fusion proteins. PP2C phosphatase activity was measured by phosphate release from a SnRK2.6 phosphoprotein.\n(§2) Site-directed mutagenesis was carried out using the QuickChange method (Stratagene). Mutations and all plasmid constructs were confirmed by sequencing."}, "PYL1 I137V": {"biological_target": "T2, PYL1 I137V (Arabidopsis thaliana, UniProt Q8VZS8, I137V)", "T2 construct": "PYL1 (residues 36-211), PYL2 (residues 14-188), and HAB1 (residues 172-511) were prepared as recombinant proteins in E. coli; made in house; host or cells: E. coli (stated for PYL1 in general)", "T2 sequence (Q8VZS8 36-211 I137V)": "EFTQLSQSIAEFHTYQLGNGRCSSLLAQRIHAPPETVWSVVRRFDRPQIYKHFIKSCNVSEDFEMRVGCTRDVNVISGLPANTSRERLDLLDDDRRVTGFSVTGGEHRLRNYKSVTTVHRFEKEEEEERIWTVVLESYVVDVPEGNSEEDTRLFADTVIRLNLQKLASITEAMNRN", "test": "PP2C interaction of mutant PYL1 I137V receptors", "format": "biochemical", "settings": "mutation of PYL1 I137 to valine; also in PYL1 A190V or V193I context", "protocol": "One key question is why pyrabactin adopts different conformations between PYL1 and PYL2. The ligand binding pockets of PYL2 and PYL1 only differ in three residues (PYL2/PYL1: V114/1137, V166/A190, and V170/1194). […] In contrast, the V114/1137 change in PYL1 collides with the naphthalene ring of pyrabactin in the PYL2 conformation (C—C distance of 2.2 Å) and forces pyrabactin to flip by 180°. […] Due to the very weak pyrabactin agonist activity in wildtype PYL1, this change is most clearly seen in the context of two mutant PYL1 receptors, in which residues A190 and V193 from helix 3 were exchanged against larger side chains that stabilize the binding of pyrabactin.\nas §1, §2"}, "[1]": {"biological_target": "T3, PYL6 / PP2Cs (HAB1, ABI1, ABI2) (Arabidopsis thaliana, UniProt Q8S8E3)", "T3 construct": "made in house; host or cells: not expressly stated for PYL6", "T3 sequence (Q8S8E3 1-215)": "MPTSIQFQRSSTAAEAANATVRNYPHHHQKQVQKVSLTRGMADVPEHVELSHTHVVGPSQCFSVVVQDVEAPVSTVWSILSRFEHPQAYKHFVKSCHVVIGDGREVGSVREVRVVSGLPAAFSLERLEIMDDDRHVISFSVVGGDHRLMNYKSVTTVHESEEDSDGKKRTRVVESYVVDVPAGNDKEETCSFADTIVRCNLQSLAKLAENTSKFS", "test": "In vitro PYL6-PP2C interaction", "format": "biochemical", "settings": "purified proteins in vitro", "protocol": "(§3) To determine the biochemical basis of these observations, we used purified proteins of PYR1 and PYL1 to PYL6 to measure their interactions with three PP2Cs, HAB1, ABI1, and ABI2, in vitro. […] In phosphatase assays, pyrabactin promoted PYR1, PYL1, PYL3, PYL5, and PYL6, but not PYL2 and PYL4, to inhibit all three PP2Cs.\nas §1\n(§4) Interactions between PYR/PYL and PP2Cs were assessed by luminescence-proximity AlphaScreen technology (Perkin Elmer). Briefly, biotinylated PP2Cs were attached to streptavidin-coated donor beads, and H6-tagged PYR/PYL receptors were attached to nickel-chelated acceptor beads. The donor and acceptor beads were brought into proximity by the interactions between PYR/PYLs and PP2Cs, which were measured with and without ligands. When excited by a laser beam of 680 nm, the donor beam emits singlet oxygen that activates thioxene derivatives in the acceptor beads, which releases photons of 520-620 nm as the binding signal. […]"}, "[2]": {"system": "HAB1 PP2C / PYR/PYL receptors", "settings": "yeast two-hybrid; cited from earlier work"}, "[3]": {"system": "PYL4 / PP2Cs (HAB1, ABI1, ABI2)", "test": "In vitro PYL4-PP2C interaction", "format": "biochemical", "settings": "purified proteins in vitro", "protocol": "as §3, §1, §4"}, "[4]": {"system": "RD29B promoter-LUC reporter", "test": "Protoplast transient assay, reconstituted ABA signaling pathway, RD29B-LUC reporter", "format": "cell-based, Arabidopsis thaliana", "settings": "Arabidopsis protoplasts", "protocol": "The ABA signal transduction pathway was reconstituted in protoplasts by transient transfection of PYR/PYL receptor, ABI1, SnRK2.6, and ABF2 expression plasmids. Activation of an ABA-inducible RD29B promoter-LUC reporter was determined by luciferase assays normalized for β-glucuronidase activity from a UQ10-GUS reporter.\nAn ABA-inducible luciferase reporter was constructed by replacing the CBF3 promoter in the CBF3-LUC construct with the promoter region of RD29B, a highly ABA-inducible gene^2. CBF3-LUC, UQ10-GUS and ABI1 protoplast expression plasmid vectors were kindly provided by Jen Sheen (Massachusetts General Hospital, Boston, Mass. 02114).\nProtoplasts were isolated from Arabidopsis thaliana ecotype Columbia-0 plants, which were grown on Jiffy7 soil (Jiffy Products Ltd., Canada) in an environment-controlled chamber at 22° C. with a photosynthetically active radiation of 75 μmol m^−2 s^−1 and a day/night cycle of 13 hours light/11 dark. Transient activity assays were performed in Arabidopsis mesophyll protoplasts from Columbia-0 wild-type plants as described by the Sheen laboratory^33. Transfected protoplasts were incubated for 5 hours in light in the presence of 0 or 5 μM (+) ABA and the indicated concentrations of pyrabactin, and then used for measuring LUC and GUS activity. […]"}},
  "data": [
    {"smiles": "O=S(=O)(NCc1ccccn1)c1ccc(Br)c2ccccc12", "note": "[Pyrabactin, pyrabactin]", "values": [
      {"measurement": "Activation of mutant PYL2 A93F receptor", "setting": "PYL2 A93F", "value": "pyrabactin-activated receptor"},
      {"measurement": "Response of mutant PYL1 I137V receptor", "setting": "PYL1 I137V", "value": "pyrabactin-inhibited receptor"},
      {"measurement": "Promotion of PYL6 interaction with the three PP2Cs", "setting": "[1]", "value": "promoted interaction"},
      {"measurement": "Interaction of the HAB1 PP2C with PYL1", "setting": "[2]", "value": "promoted"},
      {"measurement": "Interaction of the HAB1 PP2C with PYL2", "setting": "[2]", "value": "not"},
      {"measurement": "Interaction of the HAB1 PP2C with PYL3", "setting": "[2]", "value": "promoted"},
      {"measurement": "Interaction of the HAB1 PP2C with PYL4", "setting": "[2]", "value": "not"},
      {"measurement": "Interaction of the HAB1 PP2C with PYR1", "setting": "[2]", "value": "promoted"},
      {"measurement": "Promotion of PYL4 interaction with the three PP2Cs", "setting": "[3]", "value": "promoted interaction"},
      {"measurement": "PYL2 and ABA-dependent induction of the ABA-inducible reporter", "setting": "[4]; receptor PYL2, with ABA", "value": "inhibited"},
      {"measurement": "PYR1-dependent induction of the ABA-inducible reporter RD29B-LUG", "setting": "[4]; receptor PYR1, concentration-dependent", "value": "promoted"}
    ]}
  ]
}
